# Where “and” joins values, the source holds several entries; their conditions need not be identical. Equal entries are not always repeated.
# System: 362531-283-R-J2-PDC complex spheroid viability
# Assay: Anticancer human tumor 362531-283-R-J2-PDC patient-derived colon adenocarcinoma cell line growth inhibition [RAS]
# Settings: for viability, T/C: stronger effect = lower value
# Method in brief: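 Tumour cells grown as complex spheroids with HUVEC endothelial cells and mesenchymal stem cells, treated with RAS pathway inhibitor combinations. Each agent spans half-log steps from near clinical Cmax, or 10 microM where Cmax is unknown.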
# [1] = curve of first compound, second compound 0.0316 µM
# [2] = curve of first compound, second compound 0.1 µM
# [3] = curve of first compound, second compound 0.316 µM
# [4] = curve of first compound, second compound 1 µM
# [5] = second compound 0.0316 µM, first compound 0.000949 µM
# [6] = second compound 0.0316 µM, first compound 0.003 µM
# [7] = second compound 0.0316 µM, first compound 0.00949 µM
# [8] = second compound 0.0316 µM, first compound 0.03 µM
# [9] = second compound 0.0316 µM, first compound 0.0949 µM
# [10] = second compound 0.0316 µM, first compound 0.3 µM
# [11] = second compound 0.1 µM, first compound 0.000949 µM
# [12] = second compound 0.1 µM, first compound 0.003 µM
# [13] = second compound 0.1 µM, first compound 0.00949 µM
# [14] = second compound 0.1 µM, first compound 0.03 µM
# [15] = second compound 0.1 µM, first compound 0.0949 µM
# [16] = second compound 0.1 µM, first compound 0.3 µM
# [17] = second compound 0.316 µM, first compound 0.000949 µM
# [18] = second compound 0.316 µM, first compound 0.003 µM
# [19] = second compound 0.316 µM, first compound 0.00949 µM
# [20] = second compound 0.316 µM, first compound 0.03 µM
# [21] = second compound 0.316 µM, first compound 0.0949 µM
# [22] = second compound 0.316 µM, first compound 0.3 µM
# [23] = second compound 1 µM, first compound 0.000949 µM
# [24] = second compound 1 µM, first compound 0.003 µM
# [25] = second compound 1 µM, first compound 0.00949 µM
# [26] = second compound 1 µM, first compound 0.03 µM
# [27] = second compound 1 µM, first compound 0.0949 µM
# [28] = second compound 1 µM, first compound 0.3 µM
# 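Also: spheroids exposed to the agents for 7 days before readout.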
# 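For viability, T/C in this document: luminescence viability as percent of DMSO vehicle control wells.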
structure (smiles),measurement,setting,value
CCc1c2c(nc3ccc(O)cc13)-c1cc3c(c(=O)n1C2)COC(=O)[C@]3(O)CC + C#Cc1c(F)ccc2cc(O)cc(-c3ncc4c(N5CC6CCC(C5)N6)nc(OCC56CCCN5CC(F)C6)nc4c3F)c12,IC50,[1],42.2 nM
same,IC50,[2],22.4 nM
same,IC50,[3],16.6 nM
same,IC50,[4],11.4 nM
same,IC50,"curve of first compound, second compound 3.16 µM",2.45 nM
same,IC50,"curve of first compound, second compound 10 µM",< 0.949 nM
same,"viability, T/C",[5],95.2%
same,"viability, T/C",[6],91.8%
same,"viability, T/C",[7],71.5%
same,"viability, T/C",[8],60.6%
same,"viability, T/C",[9],32.3%
same,"viability, T/C",[10],18%
same,"viability, T/C",[11],92.7%
same,"viability, T/C",[12],85.8%
same,"viability, T/C",[13],64.3%
same,"viability, T/C",[14],47.2%
same,"viability, T/C",[15],25.3%
same,"viability, T/C",[16],21.2%
same,"viability, T/C",[17],84.9%
same,"viability, T/C",[18],84.3%
same,"viability, T/C",[19],57.7%
same,"viability, T/C",[20],40.5%
same,"viability, T/C",[21],18.2%
same,"viability, T/C",[22],13.9%
same,"viability, T/C",[23],72.7%
same,"viability, T/C",[24],76%
same,"viability, T/C",[25],51.2%
same,"viability, T/C",[26],30.2%
same,"viability, T/C",[27],18.5%
same,"viability, T/C",[28],12.1%
same,"viability, T/C","second compound 3.16 µM, first compound 0.000949 µM",58.2%
same,"viability, T/C","second compound 3.16 µM, first compound 0.003 µM",50.5%
same,"viability, T/C","second compound 3.16 µM, first compound 0.00949 µM",29%
same,"viability, T/C","second compound 3.16 µM, first compound 0.03 µM",19.8%
same,"viability, T/C","second compound 3.16 µM, first compound 0.0949 µM",16.1%
same,"viability, T/C","second compound 3.16 µM, first compound 0.3 µM",7.69%
same,"viability, T/C","second compound 10 µM, first compound 0.000949 µM",39.3%
same,"viability, T/C","second compound 10 µM, first compound 0.003 µM",26.9%
same,"viability, T/C","second compound 10 µM, first compound 0.00949 µM",18.8%
same,"viability, T/C","second compound 10 µM, first compound 0.03 µM",16.2%
same,"viability, T/C","second compound 10 µM, first compound 0.0949 µM",12.3%
same,"viability, T/C","second compound 10 µM, first compound 0.3 µM",8.32%
CCc1c2c(nc3ccc(O)cc13)-c1cc3c(c(=O)n1C2)COC(=O)[C@]3(O)CC + C=CC(=O)N1CCN(c2nc(OCC3CCCN3C)nc3c(F)c(-c4nc(N)cc(C)c4C(F)(F)F)c(Cl)cc23)C(C)C1,IC50,"curve of first compound, second compound 0.00316 µM",24.6 nM
same,IC50,"curve of first compound, second compound 0.01 µM",24.2 nM
same,IC50,[1],30.2 nM
same,IC50,[2],20.5 nM
same,IC50,[3],24.4 nM
same,IC50,[4],23.5 nM
same,"viability, T/C","second compound 0.00316 µM, first compound 0.000949 µM",89.9%
same,"viability, T/C","second compound 0.00316 µM, first compound 0.003 µM",104%
same,"viability, T/C","second compound 0.00316 µM, first compound 0.00949 µM",61.3%
same,"viability, T/C","second compound 0.00316 µM, first compound 0.03 µM",51.9%
same,"viability, T/C","second compound 0.00316 µM, first compound 0.0949 µM",31.2%
same,"viability, T/C","second compound 0.00316 µM, first compound 0.3 µM",26.8%
same,"viability, T/C","second compound 0.01 µM, first compound 0.000949 µM",95.5%
same,"viability, T/C","second compound 0.01 µM, first compound 0.003 µM",93.6%
same,"viability, T/C","second compound 0.01 µM, first compound 0.00949 µM",84.6%
same,"viability, T/C","second compound 0.01 µM, first compound 0.03 µM",42.4%
same,"viability, T/C","second compound 0.01 µM, first compound 0.0949 µM",29.5%
same,"viability, T/C","second compound 0.01 µM, first compound 0.3 µM",35.1%
same,"viability, T/C",[5],96.2%
same,"viability, T/C",[6],91.8%
same,"viability, T/C",[7],72.7%
same,"viability, T/C",[8],46.5%
same,"viability, T/C",[9],37.3%
same,"viability, T/C",[10],20.7%
same,"viability, T/C",[11],111%
same,"viability, T/C",[12],101%
same,"viability, T/C",[13],54%
same,"viability, T/C",[14],54%
same,"viability, T/C",[15],33%
same,"viability, T/C",[16],29.1%
same,"viability, T/C",[17],87.2%
same,"viability, T/C",[18],92.4%
same,"viability, T/C",[19],71.5%
same,"viability, T/C",[20],43.8%
same,"viability, T/C",[21],37.1%
same,"viability, T/C",[22],24.5%
same,"viability, T/C",[23],99.6%
same,"viability, T/C",[24],87.1%
same,"viability, T/C",[25],71.9%
same,"viability, T/C",[26],42.3%
same,"viability, T/C",[27],33.3%
same,"viability, T/C",[28],26.3%
CCN1CCN(Cc2ccc(Nc3ncc(F)c(-c4cc(F)c5nc(C)n(C(C)C)c5c4)n3)nc2)CC1,"viability, T/C",compound 0.00316 µM,100% (2×) and 99.6% and 106%
same,"viability, T/C",compound 0.01 µM,95.9% [middle of 4 runs]
same,"viability, T/C",compound 0.1 µM,79.9% [middle of 4 runs]
same,"viability, T/C",compound 0.316 µM,65.4% [middle of 4 runs]
same,IC50,curve of compound,> 1000 nM
Cc1nc(N2CCC3(CC2)COC(C)C3N)c(CO)nc1Sc1ccnc(N)c1Cl (stereo not drawn),"viability, T/C",compound 0.0316 µM,101% [middle of 4 runs]
same,"viability, T/C",compound 0.1 µM,107% [middle of 4 runs]
same,"viability, T/C",compound 0.316 µM,100% [middle of 4 runs]
same,"viability, T/C",compound 1 µM,88.8% [middle of 4 runs]
same,"viability, T/C",compound 3.16 µM,91.8% [middle of 4 runs]
same,"viability, T/C",compound 10 µM,80% [middle of 4 runs]
same,IC50,curve of compound,> 10000 nM
C#Cc1c(F)ccc2cc(O)cc(-c3ncc4c(N5CC6CCC(C5)N6)nc(OCC56CCCN5CC(F)C6)nc4c3F)c12 (stereo not drawn),"viability, T/C",compound 0.0316 µM,99.9% [middle of 8 runs]
same,"viability, T/C",compound 0.1 µM,101% [middle of 8 runs]
same,"viability, T/C",compound 0.316 µM,94.8% [middle of 8 runs]
same,"viability, T/C",compound 1 µM,79.1% [middle of 8 runs]
same,"viability, T/C",compound 10 µM,54.6% [middle of 8 runs]
same,IC50,"compound alone, run of 07/15/2024",6730 nM and > 10000 nM and 9190 nM
CC(Nc1ccc2c(c1)OCCn1cc(N3C(=O)OCC3C(F)F)nc1-2)C(N)=O (stereo not drawn),"viability, T/C",compound 0.0316 µM,96.9% [middle of 4 runs]
same,"viability, T/C",compound 0.1 µM,97.1% [middle of 4 runs]
same,"viability, T/C",compound 1 µM,63.1% [middle of 4 runs]
same,"viability, T/C",compound 3.16 µM,43.1% [middle of 4 runs]
same,"viability, T/C",compound 10 µM,32.6% [middle of 4 runs]
same,IC50,curve of compound,1.77 µM [middle of 4 runs]
